Assay results reported in US8124834B2, “Use of active cytokinin synthase gene” (Riken, priority 2006, dated 2012).

Tests used:
LOG protein [1] = biological target: T1, LOG protein (Oryza sativa subsp. japonica, UniProt Q5ZC82); assay: Substrate specificity of LOG protein to nucleotide cytokinin forms and AMP; assay type: biochemical; set-up: the protein coding region of the LOG gene cDNA was inserted into pCOLD-I (TaKaRa), a His-tag protein expression vector; made in house; host or cells: E. coli BL21(DE3)[pG-Tf2]; settings: 0.02 μg LOG protein, 100 μM substrate, pH 6.5, 4 minutes (iPRDP, iPRTP: 0.01 μg, 2 minutes)
T1 sequence (Q5ZC82 1-242): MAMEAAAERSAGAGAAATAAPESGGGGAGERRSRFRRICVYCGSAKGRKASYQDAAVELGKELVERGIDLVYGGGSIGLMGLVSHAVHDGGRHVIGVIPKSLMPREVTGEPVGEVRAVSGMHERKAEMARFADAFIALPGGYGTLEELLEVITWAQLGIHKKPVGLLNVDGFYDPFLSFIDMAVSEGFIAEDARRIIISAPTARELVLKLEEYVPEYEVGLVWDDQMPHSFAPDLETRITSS
Experimental: The reaction specificity of the LOG protein to a nucleotide cytokinin form was analyzed. […] The following 7 types of substrates were used: iPRMP, tZRMP, dihydrozeatin riboside 5′-monophosphate (DZRMP), cZR 5′-monophosphate (cZRMP), iPR 5′-diphosphate (iPRDP), iPR 5′-triphosphate (iPRTP), and AMP. The reaction conditions are as follows. 0.02 μg of the LOG protein was used for a single reaction, and it was reacted with a 100 μM substrate in 200 μl of a reaction solution containing 50 mM Tris-HCl, 1 mM MgCl2, 1 mM DTT, pH 6.5. Thereafter, 0 minute and 4 minutes after initiation of the reaction, 600 μl of cold acetone was added to the reaction solution to terminate the reaction. The reaction solution was left at rest at −80° C. for 30 minutes, and it was then centrifuged at 15,000 rpm for 20 minutes. Thereafter, a supernatant was dried using a centrifugal thickener. […] Only the injection amount was changed to 50 μl. In the case of iPRDP and iPRTP, the amount of a reaction solution was determined to be 100 μl, the mass of a protein used was determined to be 0.01 μg, and the reaction time was determined to be 2 minutes.

[2] = test system: AtLOG 1, 2, 3, 4, 5, 7 and 8 proteins; assay: Confirmation of LOG enzyme activity of Arabidopsis thaliana LOG homolog proteins (substrate specificity); assay type: biochemical; settings: purified AtLOG 1, 2, 3, 4, 5, 7 and 8 proteins, result stated for all together
Experimental: (§1) 3 μg of the recombinant LOG protein obtained in Example 1 was allowed to react with various types of cytokinins used as substrates. The following 8 types of cytokinin substrates were used: N^6-(delta-2-isopentenyl)adenine (iP), trans-zeatin (tZ), cis-zeatin (cZ), iP riboside (iPR), tZ riboside (tZR), cZ riboside (cZR), iPR 5′-monophosphate (iPRMP), and tZR 5′-monophosphate (tZRMP). As reaction conditions, 100 μl of a reaction solution containing 50 mM Tris-HCl, 1 mM MgCl2, and a 50 μM substrate, pH7 was incubated at 30° C. for 2 hours. Thereafter, 10 μl of 20% acetic acid was added to the reaction solution to terminate the reaction, and the reaction solution was then centrifuged at 15,000 rpm at a room temperature for 20 minutes. Thereafter, 20 μl of a supernatant was analyzed by liquid chromatography using HPLC (Waters Alliance 2695/PDA detector 2996). As a column, Symmetry C18, 3.5 μm, 2.1×100 mm cartridge (Waters) was used. For elution, solvent C (100% acetonitrile) and solvent D (2% acetic acid) were used.
The reaction specificity of the LOG protein to a nucleotide cytokinin form was analyzed. At the same time, the presence or absence of the reactivity of the LOG protein to AMP was also analyzed. […] The resultant was dissolved in 100 μl of 2% acetic acid, and the reaction product was then detected and quantified under the same conditions as those for the liquid chromatography of Example 2. […] In the case of iPRDP and iPRTP, the amount of a reaction solution was determined to be 100 μl, the mass of a protein used was determined to be 0.01 μg, and the reaction time was determined to be 2 minutes.
The enzyme activity of each of the purified AtLOG proteins was evaluated under the same reaction conditions as those of Example 2. […] In addition, the enzyme property of each AtLOG protein to iPRMP was determined in the same manner as in Example 5 (Table 4). In Table 4, the Km, Vmax and Kcat values were calculated based on a reaction under the optimal pH condition of each AtLOG protein.

LOG protein [3] = biological target: T1, LOG protein; assay: Detection of enzyme activity of recombinant LOG protein with cytokinin substrates (HPLC); assay type: biochemical; set-up: the protein coding region of the LOG gene cDNA was inserted into pCOLD-I (TaKaRa), a His-tag protein expression vector; made in house; host or cells: E. coli BL21(DE3)[pG-Tf2]; settings: 3 μg LOG protein, 50 μM substrate, pH7, 30° C., 2 hours, HPLC absorption at 270 nm
Experimental: as §1, with “The” for “3 μg of the recombinant LOG protein obtained in Example 1 was allowed to react with various types of cytokinins used as substrates. The”, “Thereafter, 20 μl of a supernatant was analyzed by liquid chromatography using HPLC (Waters Alliance 2695/PDA detector 2996). As a column, Symmetry C18, 3.5 μm, 2.1×100 mm cartridge (Waters) was used.” left out

LOG protein [4] = biological target: T1, LOG protein; assay: Measurement of Km value of LOG protein to iPRMP and tZRMP; assay type: biochemical; set-up: the protein coding region of the LOG gene cDNA was inserted into pCOLD-I (TaKaRa), a His-tag protein expression vector; made in house; host or cells: E. coli BL21(DE3)[pG-Tf2]; settings: substrate 5-100 μM, 0.02 μg LOG protein, pH 6.5
Experimental: In order to obtain the Km value of the LOG protein to typical substrates iPRMP and tZRMP, the following experiment was carried out. 0.02 μg of LOG protein was used for a single reaction, and it was reacted with a substrate in a substrate concentration of each of 5, 8, 15, 30 and 100 μM in 200 μl of a reaction solution containing 50 mM Tris-HCl, 1 mM MgCl2, 1 mM DTT, pH 6.5. Thereafter, 0 minute, 2 minutes and 4 minutes after initiation of the reaction, 600 μl of cold acetone was added to the reaction solution to terminate the reaction. The reaction solution was left at rest at −80° C. for 30 minutes, and it was then centrifuged at 15,000 rpm for 20 minutes. Thereafter, a supernatant was dried using a centrifugal thickener. The resultant was dissolved in 100 μl of 2% acetic acid, and a reaction product was then detected and quantified under the same conditions as those for the liquid chromatography of Example 2. Only the injection amount was changed to 50 μl. The aforementioned experiment was carried out three times, and the Km value was calculated.

LOG protein [5] = biological target: T1, LOG protein; settings: 3 μg LOG protein, 5 mM L-lysine, pH 6.0, 40° C., 60 minutes, HPLC absorption at 226 nm
Excerpt: As a column, Symmetry C18, 3.5 μm, 2.1×100 mm cartridge (Waters) was used.

Structure (SMILES)	reactivity of LOG protein to the substrate (substrate specificity) (LOG protein [1])	reactivity of AtLOG proteins to the substrate (substrate specificity) [2]	reactivity of the substrate with recombinant LOG protein (conversion to base form) (LOG protein [3])	specific activity of the LOG protein (LOG protein [4]) [μmol/min^−1/mg^−1 protein]	reactivity of LOG protein to lysine (LOG protein [5])
Nc1ncnc2c1ncn2[C@@H]1O[C@H](COP(=O)(O)O)[C@@H](O)[C@H]1O [AMP]	no reactivity	almost no reactivity	–	–	–
CC(C)=CCNc1ncnc2c1ncn2[C@@H]1O[C@H](COP(=O)(O)O)[C@@H](O)[C@H]1O [iPRMP, isopentenyladenine riboside 5′-monophosphate]	uses as a substrate	–	completely converted	5.6	–
NCCCC[C@H](N)C(=O)O [lysine, L-lysine]	–	–	–	–	did not exhibit reactivity

Now from value to molecule, other results behind:

reactivity of LOG protein to the substrate (substrate specificity) (LOG protein [1])	reactivity of AtLOG proteins to the substrate (substrate specificity) [2]	reactivity of the substrate with recombinant LOG protein (conversion to base form) (LOG protein [3])	specific activity of the LOG protein (LOG protein [4]) [μmol/min^−1/mg^−1 protein]	Structure (SMILES)	reactivity of LOG protein to lysine (LOG protein [5])
no reactivity	almost no reactivity	–	–	CC(C)=CCNc1ncnc2c1ncn2[C@@H]1O[C@H](COP(=O)(O)OP(=O)(O)O)[C@@H](O)[C@H]1O [iPRDP, iPR 5′-diphosphate]	–
no reactivity	almost no reactivity	–	–	CC(C)=CCNc1ncnc2c1ncn2[C@@H]1O[C@H](COP(=O)(O)OP(=O)(O)OP(=O)(O)O)[C@@H](O)[C@H]1O [iPRTP, iPR 5′-triphosphate]	–
